According to patent US10100088B2, “Glycopeptide derivatives for the preservation and protection of biological materials and microorganisms” (TFCHEM, priority 2014, dated 2018):
“Also recorded” adds a separate entry of the source.

Columns and labels:
[1] = tested on: human neonatal skin fibroblasts (CCD-27SK, ATCC CRL-1475); test: Starvation (serum deprivation) stress, neutral red uptake viability; type: cell-based; conditions: for preservative/protective effect on skin fibroblasts (in words): starvation medium
Description: Induced stresses were performed as follow: Starvation
The neutral red uptake assay was used for the determination of cell viability. This assay is based on the ability of viable cells to incorporate and bind the supravital dye neutral red in its lysosomes. So, only the viable cells are dyed. At different times after the stress assay (T0), the plates were incubated with neutral red solution for 3.5 hours. The cells are subsequently washed, the dye is extracted in each well and the absorbance is read using a spectrophotometer.
For sampling, 1 mL of DMEM (without phenol red indicator) with neutral red (OD=0.110) was added to the cells for 3.5 hours (37° C., 10% CO2). After incubation, the medium was removed, two washes of PBS were realized and 1 mL of extraction solution (absolute ethanol 49%, ultrapure water 49%, glacial acetic acid 2%) was added. Plates were placed 15 minutes on rotary shaker in the dark before reading OD at 540 nm.
The OD540 nm average value of positive control was considered as 100% of viability.
The percentage of viability for each assay was calculated as follow: % viability assay=(OD540 nm of tested solution−blank)*100/(OD540 nm of positive control−blank).

[2] = Comparative stability towards basic conditions (NaOD in D2O), 1H NMR; type: physicochemical
Description: In a first set of experiments (experiments 1 to 7 in table 9), X (10 mg, 1.72 10^−2 mmol) was reacted with 2 to 8 equivalents of NaOD in a total volume of 355 μL of deuterium oxide ([X]=4.8 10^−2 mmol·mL^−1) during 2 h 30 before being acidified with 1M DCl in D2O. To be sure that all compounds in solution are in their acidic form, the equivalents of DCl are adjusted to 3 more equivalents of DCl than the amount required to neutralize the solution (nDCl=nNaOD+3). The volume was adjusted to 544 μL with deuterium oxide.
In a second set of experiments (experiments 8 to 14 in table 9), 17 (10 mg, 1.66 10^−2 mmol) was reacted with 2 to 8 equivalents of NaOD in a total volume of 343 μL of deuterium oxide ([17]=4.8 10^−2 mmol·mL^−1) during 2 h 30 before being acidified with 1M DCl in D2O. To be sure that all compounds in solution are in their acidic form, the equivalents of DCl are adjusted to 3 more equivalents of DCl than the amount required to neutralize the solution (nDCl=nNaOD+3). The volume was adjusted to 526 μL with deuterium oxide.
^1H NMR analyses were performed on each experiment. It is why experiments were realized in deuterium oxide and using 1M NaOD in D2O as base and 1M DCl in D2O as acid.
^1H NMR allows indeed the determination of the amount of compound X1 formed, by comparison between the integration corresponding to the methylene group of the lysine side chain connected to the nitrogen atom in X (CH2NGP) (3.3 ppm) and the integrationof the same methylene group in X1 (CH2Lys hydrolyzed) (3.0 ppm).
To confirm the structure of compounds X1 and X2, resulting from hydrolysis of X, the following experiment was realized, in which X (10 mg, 1.72 10^−2 mmol) was reacted with 8 equivalents of NaOD in a total volume of 355 μL of deuterium oxide ([X]=4.8 10^−2 mmol·mL^−1) during 3 days before being acidified with 1M DCl in D2O. In these conditions, almost the totality of compound X is hydrolyzed, the percentage of hydrolysis of compound X being 85% as determined by ^1H NMR as evidence in table 11.

[3] = D4 after serum deprivation, 10 mg/mL, positive control with 5% FBS (Table 3)
[4] = D8 after serum deprivation, 10 mg/mL, positive control with 5% FBS (Table 3)

Compound | preservative/protective effect on skin fibroblasts (in words) [1] | Percentage of viability [1, 3] [%] | Percentage of viability [1, 4] [%] | also measured
CC(=O)O.CC(=O)O.C[C@H](NC(=O)[C@H](C)NC(=O)[C@@H](N)CCCCNCC(F)(F)C1(O)O[C@H](CO)[C@H](O)[C@H](O)[C@H]1O)C(=O)O (stereo partly drawn) [Compound 20] | significant preservative/protective effect |  |  | Percentage of viability ([1]; D 1 after serum deprivation, 5 mg/mL (Table 2)): 87%; Percentage of viability ([1]; D 4 after serum deprivation, 5 mg/mL (Table 2)): 63%; Percentage of viability ([1]; D 7 after serum deprivation, 5 mg/mL (Table 2)): 50%
C[C@H](NC(=O)[C@@H](N)CCCCNCC(F)(F)C1(O)O[C@H](CO)[C@H](O)[C@H](O)[C@H]1O)C(=O)O.Cl.Cl (stereo partly drawn) [Compound 22] | significant preservative/protective effect |  |  | Percentage of viability ([1]; D4 after serum deprivation, 10 mg/mL (Table 4)): 93%
Cl.Cl.N[C@@H](CCCCNCC(F)(F)C1(O)O[C@H](CO)[C@H](O)[C@H](O)[C@H]1O)C(=O)NCC(=O)NCC(=O)O (stereo partly drawn) [Compound 24] | significant preservative/protective effect | 99 ± 3.35 | 95 ± 1.60 | 
C[C@H](NC(=O)[C@@H](N)CCCCNCC(F)(F)C1(O)O[C@H](CO)[C@H](O)[C@H](O)[C@H]1O)C(=O)NCC(=O)O.Cl.Cl (stereo partly drawn) [Compound 26] | significant preservative/protective effect | 89 ± 1.21 | 64 ± 2.78 | 
C[C@H](NC(=O)CNC(=O)[C@@H](N)CCCCNCC(F)(F)C1(O)O[C@H](CO)[C@H](O)[C@H](O)[C@H]1O)C(=O)O.Cl.Cl (stereo partly drawn) [Compound 28] | significant preservative/protective effect | 109 ± 2.05 | 108 ± 3.40 | 
C[C@H](NC(=O)[C@H](C)NC(=O)[C@@H](N)CCCNCC(F)(F)C1(O)O[C@H](CO)[C@H](O)[C@H](O)[C@H]1O)C(=O)O.Cl.Cl (stereo partly drawn) [Compound 30] | significant preservative/protective effect | 92 ± 1.2 | 74 ± 0.5 | 
C[C@H](NC(=O)[C@@H](N)CCCCNCC(F)(F)C1(O)O[C@H](CO)[C@H](O)[C@H](O)[C@H]1O)C(=O)N1CCC[C@H]1C(=O)O.Cl.Cl (stereo partly drawn) [Compound 34] | significant preservative/protective effect | 103 ± 1 | 103 ± 2 | 
C[C@H](N)C(=O)N[C@@H](CCCCNCC(F)(F)C1(O)O[C@H](CO)[C@H](O)[C@H](O)[C@H]1O)C(=O)N[C@@H](C)C(=O)O.Cl.Cl (stereo partly drawn) [Compound 38] | significant preservative/protective effect | 101 ± 3 | 88 ± 3 | 
Cl.Cl.N[C@@H](CCCCNCC(F)(F)C1(O)O[C@H](CO)[C@H](O)[C@H](O)[C@H]1O)C(=O)O (stereo partly drawn) [Compound 44] | significant preservative/protective effect | 111 ± 2.9 | 102 ± 1.3 | 
C[C@H](NC(=O)[C@H](C)NC(=O)[C@@H](N)CCCCNC(=O)C(F)(F)[C@]1(O)O[C@H](CO)[C@H](O)[C@H](O)[C@H]1O)C(=O)O [Compound X] |  |  |  | % hydrolyzed ([2]; 2 eq NaOD, 2 h 30, D2O): 2.0%; stability towards basic conditions (in words) ([2]; 2 to 8 eq NaOD, 2 h 30, 1H NMR): degradation; also recorded: sensitive to basic medium; % hydrolyzed ([2]; 3 eq NaOD, 2 h 30, D2O): 4.8%; % hydrolyzed ([2]; 4 eq NaOD, 2 h 30, D2O): 13.0%; % hydrolyzed ([2]; 5 eq NaOD, 2 h 30, D2O): 16.0%; % hydrolyzed ([2]; 6 eq NaOD, 2 h 30, D2O): 19.0%; % hydrolyzed ([2]; 7 eq NaOD, 2 h 30, D2O): 20.6%; % hydrolyzed ([2]; 8 eq NaOD, 2 h 30, D2O): 22.2%; % hydrolyzed ([2]; 8 eq NaOD, 2 h 30, D2O, listed as compound X): 22%; % hydrolyzed ([2]; Control, 0 eq NaOD): 0.5%; % hydrolysis ([2]; Experiment A, 0 eq NaOD (Table 11)): 0.5%; % hydrolysis ([2]; Experiment B, 8 eq NaOD, 3 days, D2O): 85%
